Among the data in PubChem BioAssay (NCI) are TGI and GI50 values, retold here.

Test systems include OVCAR-8 ovarian; MCF7 breast; SF-539 CNS; HCT-15 colon; RPMI-8226 leukemia; UACC-62 melanoma; TK-10 renal; SNB-75 CNS; SK-MEL-2 melanoma; MOLT-4 leukemia.
What all share (test): NCI-60 cell line screen, 48 h

Each structure is given as a SMILES string.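 Cultured in 96-well plates, cells were exposed to test compound for 48 hours across five concentrations. GI50 is the concentration that inhibits growth by half. At the TGI there is no net growth.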

Turning to `CCOC1=C/C(=N\Nc2ccc([N+](=O)[O-])cc2)CCC1`, the TGI with OVCAR-8 ovarian is over 100 µM; in the assay on MCF7 breast, over 100 µM; in the assay on SF-539 CNS it was over 100 µM; in the assay with HCT-15 colon, 57.3 µM; in the assay on RPMI-8226 leukemia, over 100 µM; in the assay with UACC-62 melanoma, 67.4 µM. Besides, the TGI in the assay on TK-10 renal is over 100 µM; with SNB-75 CNS, 73.1 µM; in the assay on SK-MEL-2 melanoma, 58.1 µM; in the assay with MOLT-4 leukemia it was over 100 µM.
For the compound `COC(=O)c1c(C(=O)O)c(-c2ccccc2)c(-c2ccccc2)c(-c2ccccc2)c1-c1ccccc1`, the GI50 in the assay with OVCAR-8 ovarian was over 100 µM; in the assay on MCF7 breast it was over 100 µM; in the assay with SF-539 CNS, over 100 µM; in the assay on HCT-15 colon, over 100 µM; in the assay with RPMI-8226 leukemia, 88.8 µM; in the assay with UACC-62 melanoma, over 100 µM. Further, the GI50 in the assay with TK-10 renal is over 100 µM; in the assay with SNB-75 CNS it was 47.6 µM; in the assay with SK-MEL-2 melanoma it was over 100 µM; in the assay on MOLT-4 leukemia, over 100 µM. Also, the TGI with OVCAR-8 ovarian, with MCF7 breast, in the assay with SF-539 CNS, in the assay on HCT-15 colon, in the assay on RPMI-8226 leukemia and in the assay on UACC-62 melanoma was over 100 µM each time. The TGI in the assay with TK-10 renal, in the assay with SNB-75 CNS, with SK-MEL-2 melanoma and with MOLT-4 leukemia was over 100 µM each time.
Turning to `COc1ccc(C(=O)Cn2c(C(=O)c3ccc(Cl)cc3)nc(-c3ccccc3)c2-c2ccccc2)cc1`, the GI50 with OVCAR-8 ovarian was over 100 µM; with MCF7 breast it was over 100 µM; in the assay on SF-539 CNS, 52.3 µM; with HCT-15 colon it was over 100 µM; in the assay on RPMI-8226 leukemia it was over 100 µM; with UACC-62 melanoma, over 100 µM. Also, the GI50 was 46.5 µM in the assay with TK-10 renal, 85.8 µM with SNB-75 CNS, over 100 µM in the assay on SK-MEL-2 melanoma and over 100 µM with MOLT-4 leukemia. Further, the TGI in the assay on OVCAR-8 ovarian, in the assay on MCF7 breast, with SF-539 CNS, in the assay with HCT-15 colon, with RPMI-8226 leukemia and in the assay on UACC-62 melanoma was over 100 µM each time. The TGI with TK-10 renal, in the assay with SNB-75 CNS, with SK-MEL-2 melanoma and in the assay with MOLT-4 leukemia was over 100 µM throughout.
Take `O=C(O)CCN1C(=S)CSC1=S`: the TGI with OVCAR-8 ovarian, in the assay with MCF7 breast, in the assay on SF-539 CNS, with HCT-15 colon, with RPMI-8226 leukemia and with UACC-62 melanoma was over 100 µM in each case. Besides, the TGI with TK-10 renal, in the assay on SNB-75 CNS, in the assay on SK-MEL-2 melanoma and in the assay on MOLT-4 leukemia was over 100 µM each time.
Turning to `CC(=O)/C(=N\N=C(N)N)c1ccccc1`, the TGI in the assay on OVCAR-8 ovarian, in the assay on MCF7 breast, with SF-539 CNS, in the assay with HCT-15 colon, in the assay with RPMI-8226 leukemia and in the assay on UACC-62 melanoma was over 100 µM in each case. Moreover, the TGI with TK-10 renal, in the assay with SNB-75 CNS, in the assay on SK-MEL-2 melanoma and in the assay on MOLT-4 leukemia was over 100 µM throughout.
On to `COc1ccc(/C=C(\C#N)c2cc(OC)c(OC)c(OC)c2)cc1`, for which the GI50 in the assay on OVCAR-8 ovarian was 0.0293 µM; in the assay on MCF7 breast, 0.0272 µM; in the assay with SF-539 CNS, 0.0199 µM; in the assay on HCT-15 colon it was 0.0359 µM; with RPMI-8226 leukemia, 0.0483 µM; in the assay with UACC-62 melanoma, 0.0103 µM. The results for the GI50 in the assay with SNB-75 CNS, with SK-MEL-2 melanoma and with MOLT-4 leukemia were 0.0297 µM, 0.0356 µM and 0.0391 µM, respectively. In addition, the TGI in the assay with OVCAR-8 ovarian was over 82.8 µM; in the assay on MCF7 breast, over 50.3 µM; in the assay on SF-539 CNS, over 100 µM; in the assay with HCT-15 colon it was over 100 µM; in the assay on RPMI-8226 leukemia, 27 µM; in the assay on UACC-62 melanoma, over 100 µM. Besides, the TGI is over 100 µM with TK-10 renal, over 100 µM in the assay with SNB-75 CNS, over 100 µM in the assay on SK-MEL-2 melanoma and 6.85 µM in the assay on MOLT-4 leukemia.
For `COc1ccc(CN2c3ccccc3Sc3ccccc32)cc1O`, the GI50 with OVCAR-8 ovarian is 0.508 µM; with MCF7 breast it was 0.355 µM; with SF-539 CNS, 0.27 µM; in the assay with HCT-15 colon, 0.369 µM; in the assay with RPMI-8226 leukemia, 0.483 µM; with UACC-62 melanoma, 0.682 µM. Besides, the GI50 in the assay with TK-10 renal is 2.52 µM; with SNB-75 CNS, 0.18 µM; in the assay on SK-MEL-2 melanoma, 0.333 µM; in the assay on MOLT-4 leukemia, 0.42 µM. The TGI with OVCAR-8 ovarian came out at 20.3 µM; in the assay on MCF7 breast, 13.4 µM; in the assay with SF-539 CNS it was 0.823 µM; in the assay on HCT-15 colon it was 11.8 µM; in the assay on RPMI-8226 leukemia, 35.5 µM; in the assay on UACC-62 melanoma it was 19.4 µM. In addition, the TGI in the assay with TK-10 renal is 20.5 µM; in the assay on SNB-75 CNS it was 13.3 µM; in the assay with SK-MEL-2 melanoma, 19.9 µM; in the assay with MOLT-4 leukemia it was 22.4 µM.
As to `COc1ccc(C(=O)c2ccccc2)c(O)c1`, the GI50 was over 100 µM in the assay on OVCAR-8 ovarian; over 100 µM in the assay on MCF7 breast; over 100 µM in the assay with SF-539 CNS; 80.7 µM in the assay with HCT-15 colon; 82.2 µM in the assay with RPMI-8226 leukemia; 57.1 µM in the assay on UACC-62 melanoma. The GI50 in the assay with TK-10 renal was over 100 µM; in the assay on SNB-75 CNS, 20.4 µM; with SK-MEL-2 melanoma, over 100 µM; in the assay on MOLT-4 leukemia it was 70.6 µM. The TGI in the assay on OVCAR-8 ovarian, in the assay with MCF7 breast, with SF-539 CNS, in the assay with HCT-15 colon, in the assay with RPMI-8226 leukemia and with UACC-62 melanoma was over 100 µM in each case. Further, the TGI in the assay with TK-10 renal, in the assay on SNB-75 CNS, in the assay on SK-MEL-2 melanoma and in the assay on MOLT-4 leukemia was over 100 µM in each case.
